In ChEMBL document CHEMBL1909046, “DrugMatrix in vitro pharmacology data”:

Tests used:
[1] = molecular target: C-C chemokine receptor type 5 (Homo sapiens, UniProt P51681); type: cell membranes, Membrane; conditions: hek293; further: in other assays of this panel Not Active means under 50% inhibition at 10 µM
[2] = DRUGMATRIX: Calcium Channel Type L, Dihydropyridine radioligand binding (ligand: [3H] Nitrendipine); type: cell membranes, Rattus norvegicus, Wistar, Cerebral cortex, Membrane; conditions: Not Active = under 50% inhibition at 10 µM
Carbonic anhydrase 2 = Carbonic anhydrase 2 (Homo sapiens, UniProt P00918); assay: DRUGMATRIX: Carbonic Anhydrase II enzyme inhibition (substrate: 4-Nitrophenyl acetate (4-NPA)); type: tissue-based, Erythrocyte; conditions: erythrocyte; Not Active = under 50% inhibition at 10 µM
[3] = molecular target: 5-hydroxytryptamine receptor 1B (Rattus norvegicus, UniProt P28564); type: cell membranes, Wistar, Cerebral cortex, Membrane; conditions: for Ki: read-out: Ki; on all read-outs here: in other assays of this panel Not Active means under 50% inhibition at 10 µM
Chain of 5-hydroxytryptamine receptor 1B (P28564 whole entry): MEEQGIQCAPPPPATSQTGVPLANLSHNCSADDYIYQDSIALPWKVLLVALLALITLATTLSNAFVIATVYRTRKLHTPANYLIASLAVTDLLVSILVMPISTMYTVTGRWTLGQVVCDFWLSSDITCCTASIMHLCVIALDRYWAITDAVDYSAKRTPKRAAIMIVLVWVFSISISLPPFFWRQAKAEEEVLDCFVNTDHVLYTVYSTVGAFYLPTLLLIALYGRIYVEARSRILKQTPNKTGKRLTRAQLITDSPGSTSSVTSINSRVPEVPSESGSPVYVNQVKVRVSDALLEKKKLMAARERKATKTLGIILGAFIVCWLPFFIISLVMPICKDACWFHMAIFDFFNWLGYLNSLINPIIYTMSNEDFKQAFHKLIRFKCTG

Progesterone receptor = molecular target: T1, Progesterone receptor (Bos taurus, UniProt Q690N0); assay: DRUGMATRIX: Progesterone radioligand binding (ligand: [3H] R-5020); type: tissue-based, Uterus; conditions: Not Active = under 50% inhibition at 10 µM; for Ki: read-out: Ki
T1 sequence (Q690N0 whole entry): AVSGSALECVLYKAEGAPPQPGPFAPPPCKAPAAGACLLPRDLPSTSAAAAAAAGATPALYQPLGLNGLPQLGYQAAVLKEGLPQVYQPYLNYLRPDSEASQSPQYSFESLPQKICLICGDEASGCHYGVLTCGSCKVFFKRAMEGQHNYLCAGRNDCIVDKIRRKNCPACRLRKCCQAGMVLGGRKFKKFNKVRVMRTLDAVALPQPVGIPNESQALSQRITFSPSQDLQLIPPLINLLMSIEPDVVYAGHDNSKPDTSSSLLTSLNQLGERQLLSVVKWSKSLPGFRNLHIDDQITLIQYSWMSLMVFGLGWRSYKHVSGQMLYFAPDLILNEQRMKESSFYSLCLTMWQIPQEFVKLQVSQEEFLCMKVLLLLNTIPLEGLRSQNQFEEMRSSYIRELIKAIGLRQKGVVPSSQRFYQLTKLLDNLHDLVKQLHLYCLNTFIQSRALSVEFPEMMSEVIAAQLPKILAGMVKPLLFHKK

[4] = molecular target: T2, Alpha-1D adrenergic receptor (Homo sapiens, UniProt P25100); type: cell membranes, HEK293, Membrane; further: in other assays of this panel Not Active means under 50% inhibition at 10 µM
T2 sequence (P25100 whole entry): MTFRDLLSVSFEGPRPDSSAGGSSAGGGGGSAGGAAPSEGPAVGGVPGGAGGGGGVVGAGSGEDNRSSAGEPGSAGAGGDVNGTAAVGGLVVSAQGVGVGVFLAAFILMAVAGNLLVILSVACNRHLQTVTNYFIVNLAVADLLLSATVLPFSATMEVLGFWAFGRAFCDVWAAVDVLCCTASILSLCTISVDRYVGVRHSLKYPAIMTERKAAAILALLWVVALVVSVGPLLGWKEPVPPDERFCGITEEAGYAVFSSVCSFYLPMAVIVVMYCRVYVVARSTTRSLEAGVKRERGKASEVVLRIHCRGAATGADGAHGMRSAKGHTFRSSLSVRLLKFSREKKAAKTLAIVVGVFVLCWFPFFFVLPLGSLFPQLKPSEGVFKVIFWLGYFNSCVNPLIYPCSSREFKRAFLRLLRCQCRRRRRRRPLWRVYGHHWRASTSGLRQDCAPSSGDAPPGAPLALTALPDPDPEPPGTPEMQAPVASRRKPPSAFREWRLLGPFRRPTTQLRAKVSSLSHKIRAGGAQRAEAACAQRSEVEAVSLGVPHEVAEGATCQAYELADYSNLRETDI

Chain of C-C chemokine receptor type 5 (P51681 whole entry): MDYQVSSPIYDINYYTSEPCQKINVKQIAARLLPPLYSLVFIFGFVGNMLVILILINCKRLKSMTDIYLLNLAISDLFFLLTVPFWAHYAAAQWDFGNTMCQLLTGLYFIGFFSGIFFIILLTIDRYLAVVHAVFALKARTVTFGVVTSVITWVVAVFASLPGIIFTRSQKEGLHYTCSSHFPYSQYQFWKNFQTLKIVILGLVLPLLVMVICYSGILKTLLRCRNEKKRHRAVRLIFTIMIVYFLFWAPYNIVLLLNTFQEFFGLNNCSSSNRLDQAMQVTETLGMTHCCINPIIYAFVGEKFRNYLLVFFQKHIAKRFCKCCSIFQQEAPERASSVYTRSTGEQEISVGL

Structure (SMILES)	IC50 [1]	IC50 [2]	Ki [2]	IC50 (Carbonic anhydrase 2)	IC50 [3]	IC50 (Progesterone receptor)	IC50 ([4]; hek293)	IC50 ([3]; read-out: IC50) [nM]	Ki [3] [nM]	IC50 ([4]; read-out: IC50) [nM]	Ki ([4]; read-out: Ki) [nM]	IC50 (Progesterone receptor; read-out: IC50) [nM]	Ki (Progesterone receptor) [nM]	Ki ([4]; hek293)	IC50 ([2]; read-out: IC50) [nM]	Ki ([2]; read-out: Ki) [nM]
CC(C)(C)c1ccc(S(=O)(=O)/C=C/C#N)cc1 [BAY-11-7085]	Not Active	Not Active	Not Active	Not Active	Not Active	Not Active	Not Active									
CCc1oc2ccccc2c1C(=O)c1cc(Br)c(O)c(Br)c1 [BENZBROMARONE]	Not Active	Not Active	Not Active	Not Active	Not Active	Not Active	Not Active									
O=c1cc(-c2ccccc2)oc2ccc3ccccc3c12 [BETA-NAPHTHOFLAVONE]	Not Active	Not Active	Not Active	Not Active	Not Active	Not Active	Not Active									
CC(C)C[C@H]1C(=O)N2CCC[C@H]2[C@]2(O)O[C@](NC(=O)[C@@H]3C=C4c5cccc6[nH]c(Br)c(c56)C[C@H]4N(C)C3)(C(C)C)C(=O)N12 [BROMOCRIPTINE]	Not Active	Not Active	Not Active	Not Active		Not Active		103	47	30	15					
CS(=O)(=O)OCCCCOS(C)(=O)=O [BUSULFAN]	Not Active	Not Active	Not Active	Not Active	Not Active	Not Active	Not Active									
O=C(/C=C/c1ccc(O)c(O)c1)OCCc1ccccc1 [CAFFEIC ACID PHENETHYL ESTER]	Not Active	Not Active	Not Active	Not Active	Not Active	Not Active	Not Active									
COc1cc(CNC(=O)CCCC/C=C/C(C)C)ccc1O [CAPSAICIN]	Not Active	Not Active	Not Active	Not Active	Not Active	Not Active	Not Active									
NC(=O)N1c2ccccc2C=Cc2ccccc21 [CARBAMAZEPINE]	Not Active	Not Active	Not Active	Not Active	Not Active	Not Active	Not Active									
CCOC(=O)n1ccn(C)c1=S [CARBIMAZOLE]	Not Active	Not Active	Not Active	Not Active	Not Active	Not Active	Not Active									
Oc1ccccc1O [CATECHOL]	Not Active	Not Active	Not Active	Not Active	Not Active	Not Active	Not Active									
CO[C@@]1(NC(=O)CSCC#N)C(=O)N2C(C(=O)O)=C(CSc3nnnn3C)CS[C@@H]21 [CEFMETAZOLE]	Not Active	Not Active	Not Active	Not Active	Not Active	Not Active	Not Active									
CN(C(=O)CCCOc1ccc2[nH]c(=O)ccc2c1)C1CCCCC1 [CILOSTAMIDE]	Not Active	Not Active	Not Active	Not Active	Not Active	Not Active	Not Active									
CC(C)(Oc1ccc(C2CC2(Cl)Cl)cc1)C(=O)O (stereo not drawn) [CIPROFIBRATE]	Not Active	Not Active	Not Active	Not Active	Not Active	Not Active	Not Active									
Nc1nc(Cl)nc2c1ncn2[C@H]1C[C@H](O)[C@@H](CO)O1 [CLADRIBINE]	Not Active	Not Active	Not Active	Not Active	Not Active	Not Active	Not Active									
CC[C@H]1OC(=O)[C@H](C)[C@@H](O[C@H]2C[C@@](C)(OC)[C@@H](O)[C@H](C)O2)[C@H](C)[C@@H](O[C@@H]2O[C@H](C)C[C@H](N(C)C)[C@H]2O)[C@](C)(OC)C[C@@H](C)C(=O)[C@H](C)[C@@H](O)[C@]1(C)O [CLARITHROMYCIN]	Not Active	Not Active	Not Active	Not Active	Not Active	Not Active	Not Active									
CCC[C@@H]1C[C@@H](C(=O)N[C@@H]([C@H]2O[C@H](SC)[C@H](O)[C@@H](O)[C@H]2O)[C@H](C)Cl)N(C)C1 [CLINDAMYCIN]	Not Active	Not Active	Not Active	Not Active	Not Active	Not Active	Not Active									
O=C(O)c1cc(=O)c2c(OCC(O)COc3cccc4oc(C(=O)O)cc(=O)c34)cccc2o1 [CROMOLYN]	Not Active	Not Active	Not Active	Not Active	Not Active	Not Active	Not Active									
O=P1(N(CCCl)CCCl)NCCCO1 (stereo not drawn) [CYCLOPHOSPHAMIDE ANHYDROUS]	Not Active	Not Active	Not Active	Not Active	Not Active	Not Active	Not Active									
CC(=O)O[C@]1(C(C)=O)CC[C@H]2[C@@H]3C=C(Cl)C4=CC(=O)[C@@H]5C[C@@H]5[C@]4(C)[C@H]3CC[C@@]21C [CYPROTERONE ACETATE]	Not Active	Not Active	Not Active	Not Active	Not Active							37	4.84	Not Active		
Nc1nc(N)nc(NC2CC2)n1 [CYROMAZINE]	Not Active	Not Active	Not Active	Not Active	Not Active	Not Active	Not Active									
C#C[C@]1(O)CC[C@H]2[C@@H]3CCC4=Cc5oncc5C[C@]4(C)[C@H]3CC[C@@]21C [DANAZOL]	Not Active			Not Active	Not Active		Not Active					259	34		19600	12600
CCN[C@@H](C)Cc1cccc(C(F)(F)F)c1 [DEXFENFLURAMINE]	Not Active	Not Active	Not Active	Not Active	Not Active	Not Active	Not Active									
C[C@H](C(=O)O)c1cccc(C(=O)c2ccccc2)c1 [DEXKETOPROFEN]	Not Active	Not Active	Not Active	Not Active	Not Active	Not Active	Not Active									
CN1C(=O)CN=C(c2ccccc2)c2cc(Cl)ccc21 [DIAZEPAM]	Not Active	Not Active	Not Active	Not Active	Not Active	Not Active	Not Active									
CN1C[C@H](C(=O)N[C@]2(C)O[C@@]3(O)[C@@H]4CCCN4C(=O)[C@H](Cc4ccccc4)N3C2=O)C[C@@H]2c3cccc4[nH]cc(c34)C[C@H]21 [DIHYDROERGOTAMINE]	Not Active	Not Active	Not Active	Not Active		Not Active		0.846	0.384	29	14					
Cc1c(N(C)CS(=O)(=O)[O-])c(=O)n(-c2ccccc2)n1C.[Na+] [DIPYRONE SODIUM]	Not Active	Not Active	Not Active	Not Active	Not Active	Not Active	Not Active									
CC(CCc1ccc(O)cc1)NCCc1ccc(O)c(O)c1 (stereo not drawn) [DOBUTAMINE]	Not Active	Not Active	Not Active	Not Active	Not Active	Not Active				114	56					
CCn1cc(C(=O)O)c(=O)c2cc(F)c(N3CCNCC3)nc21 [ENOXACIN]	Not Active	Not Active	Not Active	Not Active	Not Active	Not Active	Not Active									
